Test results reported in US12428406B2 (PMV Pharmaceuticals, Inc., priority 2019, dated 2025).

Target: T1, p53 Y220C (Homo sapiens, UniProt P04637, Y220C)
T1 construct: The recombinant protein was a truncation mutant containing only amino acids 94-312 of p53; made in house; host or cells: E. coli
Experiment: In vitro DNA binding activity assay (HTRF / TR-FRET): stabilization of p53 Y220C and increase of its DNA binding activity
Format: biochemical
Conditions: recombinant His-tagged p53 Y220C DNA binding domain (aa 94-312), biotin-labeled consensus DNA, incubated at 27° C. or 29° C. for 60 min
How it was run: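 E. coli His-p53 Y220C + biotin consensus DNA; anti-His-APC/SA-Eu TR-FRET. SC150 vs no-compound.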

T1 sequence (P04637 94-312, change not shown): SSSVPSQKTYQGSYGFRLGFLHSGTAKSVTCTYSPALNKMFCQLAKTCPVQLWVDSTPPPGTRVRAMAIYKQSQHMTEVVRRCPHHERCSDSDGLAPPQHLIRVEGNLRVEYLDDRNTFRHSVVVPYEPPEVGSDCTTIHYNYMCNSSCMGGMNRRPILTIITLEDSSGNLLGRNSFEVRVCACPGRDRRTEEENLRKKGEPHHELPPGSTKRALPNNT

Row | SMILES | SC150 (concentration of the compound required to increase the DNA binding activity by 50%)
1 | COCCN(C)[C@H]1CC[C@H](Nc2cccc3c2cc(C#CCNc2ccc(S(C)(=O)=O)cc2OCC#N)n3CC(F)(F)F)CC1 [Compound 149A] | + (+ = 0 μM ≤ SC150 < 0.05 μM)
2 | CS(=O)(=O)c1ccc(NCC#Cc2cc3c(NC4CCS(=O)(=O)CC4)cccc3n2CC(F)(F)F)c(OC(F)(F)F)c1 [Compound 1035A, 4-{[2-(3-{[4-methanesulfonyl-2-(trifluoromethoxy)phenyl]amino}prop-1-yn-1-yl)-1-(2,2,2-trifluoroethyl)-1H-indol-4-yl]amino}-1λ^6-thiane-1,1-dione] | + (+ = 0 μM ≤ SC150 < 0.05 μM)
3 | CCC(=O)N1CCC(Nc2cccc3c2cc(C#CCNc2ccc(S(C)(=O)=O)cc2OC)n3CC(F)(F)F)CC1 [Compound 756A] | + (+ = 0 μM ≤ SC150 < 0.05 μM)
4 | NS(=O)(=O)c1ccc(NCC#Cc2cc3c(N[C@H]4CC[C@H](N5CC6(CCOCC6)C5)CC4)cccc3n2CC(F)(F)F)c(OCF)c1 [Compound 316A, 3-(fluoromethoxy)-4-{[3-(4-{[(1R,4R)-4-{7-oxa-2-azaspiro[3.5]nonan-2-yl}cyclo-hexyl]amino}-1-(2,2,2-trifluoroethyl)-1H-indol-2-yl)prop-2-yn-1-yl]amino}benzene-1-sulfonamide] | + (+ = 0 μM ≤ SC150 < 0.05 μM)
5 | CCOc1cc(S(C)(=O)=O)ccc1NCC#Cc1cc2c(N[C@H]3CC[C@H](N4CCC5(CC4)COC5)CC3)cccc2n1CC(F)(F)F [Compound 393A, N-((1R,4R)-4-(2-oxa-7-azaspiro[3.5]nonan-7-yl)cyclohexyl)-2-(3-((2-ethoxy-4-(methylsulfonyl)phenyl)amino)prop-1-yn-1-yl)-1-(2,2,2-trifluoroethyl)-1H-indol-4-amine] | + (+ = 0 μM ≤ SC150 < 0.05 μM)
6 | COCCN(C)[C@H]1CC[C@H](Nc2cccc3c2cc(C#CCNc2ccc(S(N)(=O)=O)cc2OC)n3CC(F)(F)F)CC1 [Compound 160A, 3-methoxy-4-{[3-(4-{[(1R,4R)-4-[(2-methoxyethyl)(methyl)amino]cyclohexyl]amino}-1-(2,2,2-trifluoroethyl)-1H-indol-2-yl)prop-2-yn-1-yl]amino}benzene-1-sulfonamide] | + (+ = 0 μM ≤ SC150 < 0.05 μM)
7 | CCOc1cc(C(N)=O)ccc1NCC#Cc1cc2c(N[C@@H]3CCN(C)C[C@@H]3F)cccc2n1CC(F)(F)F [Compound 1059A, 3-ethoxy-4-{[3-(4-{[(3S,4R)-3-fluoro-1-methylpiperidin-4-yl]amino}-1-(2,2,2-trifluoroethyl)-1H-indol-2-yl)prop-2-yn-1-yl]amino}benzamide] | + (+ = 0 μM ≤ SC150 < 0.05 μM)
8 | CCNC(=O)c1ccc(NCC#Cc2cc3c(N[C@H]4CC[C@H](N(C)C)CC4)cccc3n2CC(F)(F)F)c(OC)c1 [Compound 101A, N-ethyl-3-methoxy-4-{[3-(4-{[(1R,4R)-4-(dimethylamino)cyclo-hexyl]amino}-1-(2,2,2-trifluoroethyl)-1H-indol-2-yl)prop-2-yn-1-yl]amino}benzamide] | + (+ = 0 μM ≤ SC150 < 0.05 μM)
9 | CN1CCC(Nc2cccc3c2cc(C#CCNc2ccc(CN4CCOCC4)cc2)n3CC(F)(F)F)CC1 [Compound 508A, N-(1-methylpiperidin-4-yl)-2-[3-({4-[(morpholin-4-yl)methyl]phenyl}amino)prop-1-yn-1-yl]-1-(2,2,2-trifluoroethyl)-1H-indol-4-amine] | + (+ = 0 μM ≤ SC150 < 0.05 μM)
10 | CCS(=O)(=O)c1ccc(NCC#Cc2cc3c(N[C@H]4CC[C@H](N5CC6(COC6)C5)CC4)cccc3n2CC(F)(F)F)c(OC)c1 [Compound 269A, N-((1R,4R)-4-(2-oxa-6-azaspiro[3.3]heptan-6-yl)cyclohexyl)-2-(3-((4-(ethylsulfonyl)-2-methoxyphenyl)amino)prop-1-yn-1-yl)-1-(2,2,2-trifluoroethyl)-1H-indol-4-amine] | + (+ = 0 μM ≤ SC150 < 0.05 μM)
11 | CNC(=O)c1ccc(NCC#Cc2cc3c(N[C@H]4CC[C@H](N5CC(S(C)(=O)=O)C5)CC4)cccc3n2CC(F)(F)F)c(OC)c1 [Compound 192A, 3-methoxy-N-methyl-4-{[3-(4-{[(1R,4R)-4-(3-methanesulfonyl-azetidin-1-yl)cyclo-hexyl]amino}-1-(2,2,2-trifluoroethyl)-1H-indol-2-yl)prop-2-yn-1-yl]amino}benzamide] | + (+ = 0 μM ≤ SC150 < 0.05 μM)
12 | COc1cc(S(=O)(=O)Nc2cc(C)on2)ccc1NCC#Cc1cc2c(NC3CCOCC3)cccc2n1CC(F)(F)F [Compound 994A, 3-methoxy-N-(5-methyl-1,2-oxazol-3-yl)-4-[(3-{4-[(oxan-4-yl)amino]-1-(2,2,2-trifluoroethyl)-1H-indol-2-yl}prop-2-yn-1-yl)amino]benzene-1-sulfonamide] | + (+ = 0 μM ≤ SC150 < 0.05 μM)
13 | CNC1CCC(Nc2cccc3c2cc(C#CCNc2ccc(S(C)(=O)=O)cc2OC)n3CC(F)(F)F)C(F)C1 (centres unmarked) [Compound 39A] | + (+ = 0 μM ≤ SC150 < 0.05 μM)
14 | COc1cc(C(=O)O)ccc1NCC#Cc1cc2c(N[C@H]3CCN(C)C[C@H]3F)cccc2n1CC(F)(F)F [Compound 780A, 4-{[3-(4-{[(3R,4S)-3-fluoro-1-methylpiperidin-4-yl]amino}-1-(2,2,2-trifluoroethyl)-1H-indol-2-yl)prop-2-yn-1-yl]amino}-3-methoxybenzoic acid] | + (+ = 0 μM ≤ SC150 < 0.05 μM)
15 | COc1cc(S(N)(=O)=O)ccc1NCC#Cc1cc2c(NC3CCN(C(C)C)CC3)cccc2n1CC(F)(F)F [Compound 543A, 3-methoxy-4-{[3-(4-{[1-(propan-2-yl)piperidin-4-yl]amino}-1-(2,2,2-trifluoroethyl)-1H-indol-2-yl)prop-2-yn-1-yl]amino}benzene-1-sulfonamide] | + (+ = 0 μM ≤ SC150 < 0.05 μM)
16 | COc1cc(S(N)(=O)=O)ccc1NCC#Cc1cc2c(NC3CCN(C[C@@H]4COC(C)(C)O4)CC3)cccc2n1CC(F)(F)F [Compound 568A, 4-[(3-{4-[(1-{[(4R)-2,2-dimethyl-1,3-dioxolan-4-yl]methyl}piperidin-4-yl)amino]-1-(2,2,2-trifluoroethyl)-1H-indol-2-yl}prop-2-yn-1-yl)amino]-3-methoxybenzene-1-sulfonamide] | + (+ = 0 μM ≤ SC150 < 0.05 μM)
17 | COc1cc(S(C)(=O)=O)ccc1NCC#Cc1cc2c(N[C@H]3CC[C@H](N4CCOCC4)CC3)cccc2n1CC(F)F [Compound 180A, 1-(2,2-difluoroethyl)-2-{3-[(4-methane-sulfonyl-2-methoxy-phenyl)amino]prop-1-yn-1-yl}-N-[(1R,4R)-4-(morpholin-4-yl)cyclo-hexyl]-1H-indol-4-amine] | + (+ = 0 μM ≤ SC150 < 0.05 μM)
